From EP4813403A1, “USE OF GLP-1R/GIPR DOUBLE-TARGET AGONIST IN PREPARING ANIMAL DRUG” (Hangzhou Zhongmeihuadong Pharmaceutical Co., Ltd., priority 2023, dated 2025)
Read-outs that look alike come from different tables or passages of the source.

Assays:
dog GIPR = target: T1, dog GIPR (Canis lupus familiaris, UniProt A0A8I3MPG1); assay: Agonistic activity on GIPR of different species (LANCE Ultra cAMP assay): dog; assay type: cell-based; details: ratio of EC50 value of other species to human EC50 value
T1 construct: expressed in transfected cells; host or cells: CHO-K1 (transient)
T1 sequence (A0A8I3MPG1 24-449): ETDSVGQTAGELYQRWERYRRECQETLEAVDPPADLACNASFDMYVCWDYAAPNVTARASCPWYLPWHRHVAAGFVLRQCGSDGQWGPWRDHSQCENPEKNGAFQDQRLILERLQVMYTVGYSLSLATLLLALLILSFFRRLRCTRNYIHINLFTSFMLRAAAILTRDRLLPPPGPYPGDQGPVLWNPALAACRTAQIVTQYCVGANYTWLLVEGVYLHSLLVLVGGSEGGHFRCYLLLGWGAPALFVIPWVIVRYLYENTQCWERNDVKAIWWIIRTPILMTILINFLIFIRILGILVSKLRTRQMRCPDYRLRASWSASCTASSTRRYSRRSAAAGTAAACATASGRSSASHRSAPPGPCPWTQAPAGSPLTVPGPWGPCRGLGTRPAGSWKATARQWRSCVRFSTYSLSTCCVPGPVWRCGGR
Description: CHO-K1 cells were seeded in a 6-well plate at 0.6×10^6 cells/well and incubated overnight in an incubator at a temperature of 37 °C and a carbon dioxide concentration of 5%. The next day, CHO-K1 cell media were replaced. Then two tubes A and B were prepared for each plasmid. 100 µL Opti-MEM was added to tube A, then 4 µL Lipofectamine™ 3000 was added and mixed uniformly. 100 µL Opti-MEM was firstly added to tube B, then 2 µg of one of the plasmids (human GIPR-pcDNA5 (+) plasmid, dog GIPR-pcDNA5 (+) plasmid, mouse GIPR-pcDNA5 (+) plasmid, rat GIPR-pcDNA5 (+) plasmid, rabbit GIPR-pcDNA5 (+) plasmid, monkey GIPR-pcDNA5 (+) plasmid) was added and mixed uniformly, and 4 µL P3000™ was added to tube B and mixed uniformly (the ratio of plasmid to transfection reagent was 1 µg: 2 µL). […]
18-20 hours after transfection, human GIPR-CHO, dog GIPR-CHO, mouse GIPR-CHO, rat GIPR-CHO, rabbit GIPR-CHO, and monkey GIPR-CHO cells were resuspended in 1×Casein Stimulation Buffer (HBSS, 5 mM HEPES, 0.5 mM IBMX, 0.1% casein, pH7.4), and seeded into a 384-well cell culture plate at 9 µL/well (cell numbers being 1000, 2000, 2000, 2000, 2000, 2000 cells/well, respectively). […] The readings at 665 nm and 620 nm were determined with a 330 nm excitation light on a microplate reader. The 665 nm/620 nm reading ratio was calculated. […]

rat GIPR = target: T2, rat GIPR (Rattus norvegicus, UniProt P43219); assay: Agonistic activity on GIPR of different species (LANCE Ultra cAMP assay): rat; assay type: cell-based; details: ratio of EC50 value of other species to human EC50 value
T2 construct: expressed in transfected cells; host or cells: CHO-K1 (transient)
T2 sequence (P43219 19-455): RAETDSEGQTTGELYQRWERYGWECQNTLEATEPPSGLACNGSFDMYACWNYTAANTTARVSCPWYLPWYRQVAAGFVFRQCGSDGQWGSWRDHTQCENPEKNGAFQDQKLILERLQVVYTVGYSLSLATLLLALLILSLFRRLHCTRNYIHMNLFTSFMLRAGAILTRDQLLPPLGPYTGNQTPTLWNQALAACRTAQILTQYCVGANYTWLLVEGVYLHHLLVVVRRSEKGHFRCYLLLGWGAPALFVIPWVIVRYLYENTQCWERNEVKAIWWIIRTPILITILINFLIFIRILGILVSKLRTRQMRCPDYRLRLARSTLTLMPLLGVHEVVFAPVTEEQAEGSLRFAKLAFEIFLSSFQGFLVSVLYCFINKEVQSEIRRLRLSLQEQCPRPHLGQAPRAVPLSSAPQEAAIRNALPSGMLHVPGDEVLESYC

[1] = Pharmacokinetics in beagle dogs; assay type: in vivo; details: for MRT: beagle
Description: After subcutaneous administration to beagle dogs, plasma was collected and the drug concentration in plasma was determined to illustrate the in vivo pharmacokinetic properties of the compound according to the present invention. The compound of the present invention was administered to a beagle dog (7-9 kg) at a dose of 0.05mg/kg subcutaneously (s.c.). About 500 µL of whole blood was collected from the saphenous vein into an EDTA-K2 anticoagulant tube at predose, 0.5 hours, 1 hour, 2 hours, 6 hours, 10 hours, 24 hours, 48 hours, 72 hours and 96 hours, respectively. The blood samples were centrifuged at 3000 g and at 2°C to 8°C for 10 minutes to obtain plasma, which was stored at -90°C to -60°C for further analysis and assay.
20.0 µL of thawed plasma sample was taken. […] Then 120 µL of 0.1% formic acid in methanol was added to precipitate the protein. The mixture was vortexed for 5 minutes, and centrifuged at 4815g for 10 minutes. 100.0 µL of the supernatant was taken, into which 100 µL of 0.5% aqueous formic acid solution was added. The mixture was vortexed for 5 minutes. 10 µL of the mixture solution was sampled and injected into the LC-MS/MS to determine the drug concentration in plasma.
Based on the drug concentration in plasma of the compound in the beagle dogs, the pharmacokinetic parameters were calculated by applying the software Winnolin 8.3 in a non-compartmental model. Table 11 Average pharmacokinetic parameters after single subcutaneous administration in beagle dogs

[2] = beagle dogs, single subcutaneous administration, 0.05mg/kg
[3] = dog, in vivo, sc, beagle dogs, single subcutaneous administration, 0.05mg/kg

## CC[C@H](C)[C@H](NC(=O)C(C)(C)NC(=O)[C@H](Cc1ccc(O)cc1)NC(=O)[C@H](CC(=O)O)NC(=O)[C@H](CO)NC(=O)[C@@H](NC(=O)C(C)(Cc1ccccc1)NC(=O)[C@@H](NC(=O)CNC(=O)[C@H](CCC(=O)O)NC(=O)C(C)(C)NC(=O)[C@@H](N)Cc1ccc(O)cc1)[C@@H](C)O)[C@@H](C)O)C(=O)NC(C)(C)C(=O)N[C@@H](CC(C)C)C(=O)N[C@@H](CC(=O)O)C(=O)N[C@@H](CCCCN)C(=O)N[C@@H](CCC(N)=O)C(=O)N[C@@H](C)C(=O)N[C@@H](CCC(N)=O)C(=O)N[C@@H](C)C(=O)N[C@@H](CCC(=O)O)C(=O)N[C@@H](Cc1ccccc1)C(=O)N[C@H](C(=O)N[C@@H](CCCCNC(=O)COCCOCCNC(=O)COCCOCCNC(=O)COCCOCCNC(=O)CC[C@H](NC(=O)CCCCCCCCCCCCCCCCCCCCC(=O)O)C(=O)O)C(=O)N[C@@H](Cc1c[nH]c2ccccc12)C(=O)N[C@@H](CC(C)C)C(=O)N[C@@H](CC(C)C)C(=O)N[C@@H](CCCCN)C(=O)NCC(=O)NCC(=O)N1CCC[C@H]1C(=O)N[C@@H](CO)C(=O)N[C@@H](CO)C(=O)NCC(=O)N[C@@H](C)C(=O)N1CCC[C@H]1C(=O)N1CCC[C@H]1C(=O)N1CCC[C@H]1C(=O)N[C@@H](CO)C(=O)N[C@@H](CCCCN)C(N)=O)C(C)C (stereo partly shown) [Compound P016]
Dog GIPR
  GIPR EC50 ratio: 2.88
Rat GIPR
  GIPR EC50 ratio: 2.22
[1]; [2]
  AUC(0-t): 29925 ng·h/mL
  Cmax: 407.33 ng/mL
  Tmax: 19.33 h
[1]; dog, in vivo, sc, 0.05 mg/kg, MRT0-inf
  MRT: 108 ± 23.2 h
[1]; dog, in vivo, sc, 0.05 mg/kg, MRT0-t
  MRT: 44.8 ± 4.17 h
[1]; dog, in vivo, sc, 0.05 mg/kg
  T1/2: 69.32 h
[1]; [3]
  AUC(0-inf): 52100 ± 14700 ng·h/mL
  half-life: 2.89 ± 0.582 days
[1]; dog, in vivo, sc, beagle dogs, single subcutaneous administration, 0.05mg/kg, read-out: AUC0-t
  AUC(0-t): 29900 ± 5660 ng·h/mL
[1]; dog, in vivo, sc, beagle dogs, single subcutaneous administration, 0.05mg/kg, read-out: Cmax
  Cmax: 407 ± 45.8 ng/mL
[1]; dog, in vivo, sc, beagle dogs, single subcutaneous administration, 0.05mg/kg, read-out: Tmax
  Tmax: 19.3 ± 8.08 h
